Experimental data as given in paper PMC7673538 (PLoS Biology, 2020).
Where “and” joins values, the source holds several entries; their conditions need not be identical. Equal values may be shown once. Read-outs that look alike come from different tables or passages of the source.

How the values were obtained:
CV-A24v = assay: microbe, parasite or virus in culture; assay type: cell-based, coxsackievirus A24v; details: for EC50: Coxsackievirus
human SERT = molecular target: T1, human SERT (Homo sapiens, UniProt P31645); assay type: cell-based; details: for SERT, Mean (Figure 8B): Control = 100.00; for SERT, Mean as % (Figure 8B): Control = 100%
T1 construct: expressed in transfected cells; host or cells: HEK293 (gift of Dr. Hoener, F. Hoffmann-La Roche)

HRV-B14 = assay: microbe, parasite or virus in culture; assay type: cell-based, human rhinovirus; details: for EC50: Human rhinovirus sp.
HRV-A2 = assay: microbe, parasite or virus in culture; assay type: cell-based, human rhinovirus
EV-A71 (strain BrCr) = assay type: cell-based, enterovirus A71
in vitro [1] = details: human
human NET = molecular target: T2, human NET (Homo sapiens, UniProt P23975); assay type: cell-based; details: for NET, Mean (Figure 8B): Control = 100; for NET, Mean as % (Figure 8B): Control = 100%
T2 construct: expressed in transfected cells; host or cells: HEK293 (gift of Dr. Hoener, F. Hoffmann-La Roche)

in vitro [2] = details: human; remark: listed apart in the source
PV-1 = assay: microbe, parasite or virus in culture; assay type: cell-based, poliovirus 1; details: for EC50: Enterovirus C

T1 sequence (P31645 whole entry): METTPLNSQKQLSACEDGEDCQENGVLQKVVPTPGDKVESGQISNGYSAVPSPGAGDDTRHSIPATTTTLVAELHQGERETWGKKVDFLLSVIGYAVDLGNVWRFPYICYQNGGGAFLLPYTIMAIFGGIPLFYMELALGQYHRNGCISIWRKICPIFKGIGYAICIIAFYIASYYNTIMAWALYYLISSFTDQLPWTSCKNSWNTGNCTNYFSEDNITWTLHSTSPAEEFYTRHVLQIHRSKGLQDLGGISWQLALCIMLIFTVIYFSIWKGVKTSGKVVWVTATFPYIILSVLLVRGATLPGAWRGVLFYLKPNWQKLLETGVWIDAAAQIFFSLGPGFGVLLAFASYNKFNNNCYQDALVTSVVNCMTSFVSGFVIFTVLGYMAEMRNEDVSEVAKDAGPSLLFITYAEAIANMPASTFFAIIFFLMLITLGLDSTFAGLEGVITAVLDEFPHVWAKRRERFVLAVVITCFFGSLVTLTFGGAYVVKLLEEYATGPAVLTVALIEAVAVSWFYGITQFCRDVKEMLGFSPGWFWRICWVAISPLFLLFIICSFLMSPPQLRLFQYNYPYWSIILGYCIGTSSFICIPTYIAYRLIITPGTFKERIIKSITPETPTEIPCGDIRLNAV
T2 sequence (P23975 whole entry): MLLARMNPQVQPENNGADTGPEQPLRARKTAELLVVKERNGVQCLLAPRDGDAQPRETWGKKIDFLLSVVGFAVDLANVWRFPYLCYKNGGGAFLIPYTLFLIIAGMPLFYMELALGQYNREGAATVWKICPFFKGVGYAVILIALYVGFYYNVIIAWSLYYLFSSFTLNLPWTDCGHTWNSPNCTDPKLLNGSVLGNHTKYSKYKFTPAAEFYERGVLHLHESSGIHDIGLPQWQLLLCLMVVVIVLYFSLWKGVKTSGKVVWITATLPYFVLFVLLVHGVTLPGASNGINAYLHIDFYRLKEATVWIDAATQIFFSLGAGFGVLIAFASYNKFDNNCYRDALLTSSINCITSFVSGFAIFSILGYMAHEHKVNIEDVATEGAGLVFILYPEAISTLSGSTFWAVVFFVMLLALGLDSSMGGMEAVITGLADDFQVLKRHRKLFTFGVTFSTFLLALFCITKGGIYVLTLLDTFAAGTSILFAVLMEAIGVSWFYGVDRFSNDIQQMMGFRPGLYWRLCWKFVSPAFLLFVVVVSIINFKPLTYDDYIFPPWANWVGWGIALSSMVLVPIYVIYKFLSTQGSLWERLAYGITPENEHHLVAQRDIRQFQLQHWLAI

SMILES: COc1ccc(N(Cc2ccc(F)cc2)C(=O)c2cc[nH]c2)cc1 [Compound 12a, N-(4-Fluorobenzyl)-N-(4-methoxyphenyl)-1H-pyrrole-3-carboxamide]
- Figure 7 dose-response raw data, CV-A24v (triplicate values) (CV-A24v; Concentration 0.0046 µM): 10.497 and 11.7005 and 9.1598
- Figure 7 dose-response raw data, CV-A24v (triplicate values) (CV-A24v; Concentration 0.0137 µM): 16.1819 and 13.1094 and 20.3605
- Figure 7 dose-response raw data, CV-A24v (triplicate values) (CV-A24v; Concentration 0.0412 µM): 16.1819 and 13.1094 and 20.3605
- Figure 7 dose-response raw data, CV-A24v (triplicate values) (CV-A24v; Concentration 0.1235 µM): 12.9865 and 12.4949 and 21.3437
- Figure 7 dose-response raw data, CV-A24v (triplicate values) (CV-A24v; Concentration 0.3704 µM): 12.7407 and 14.2155 and 15.1987
- Figure 7 dose-response raw data, CV-A24v (triplicate values) (CV-A24v; Concentration 1.1111 µM): 10.0369 and 10.7743 and 14.83
- Figure 7 dose-response raw data, CV-A24v (triplicate values) (CV-A24v; Concentration 3.3333 µM): 9.791 and 10.5285 and 14.2155
- Figure 7 dose-response raw data, CV-A24v (triplicate values) (CV-A24v; Concentration 11.1111 µM): 82.2926 and 86.3728 and 89.8506
- Figure 7 dose-response raw data, CV-A24v (triplicate values) (CV-A24v; Concentration 33.3333 µM): 113.496 and 111 and 111.553
- Figure 7 dose-response raw data, CV-A24v (triplicate values) (CV-A24v; Concentration 100 µM): 106.3 and 102.374 and 110.232
- EC50 (CV-A24v; HeLa R19, read-out: EC50 CV-A24v strain 110386): 1.94 ± 0.07 µM
- EC50 (CV-A24v; HeLa R19, read-out: EC50 CV-A24v strain 110389): 3.77 ± 0.32 µM
- EC50 (CV-A24v; HeLa R19, read-out: EC50 CV-A24v strain 110390): 1.91 ± 0.55 µM
- EC50 (CV-A24v; HeLa R19, read-out: EC50 CV-A24v strain 110392): 2.32 ± 0.23 µM
- SERT, Mean (Figure 8B) (human SERT; 1µM): 99.47
- SERT, Mean as % (Figure 8B) (human SERT; 1µM): 99%
- SERT, Mean (Figure 8B) (human SERT; 100µM): 114.09
- SERT, Mean as % (Figure 8B) (human SERT; 100µM): 114%
- inhibition of SERT-mediated uptake (in words) (human SERT; HEK293 cells expressing human SERT, 1 and 100 μM): neither 12a, 19b, 19d, nor the combined compound 12b inhibited
- Figure 7 dose-response raw data, HRV_B14 (triplicate values) (HRV-B14; Concentration 0.0046 µM): 15.2266 and 14.5606
- Figure 7 dose-response raw data, HRV_B14 (triplicate values) (HRV-B14; Concentration 0.0412 µM): 11.568 and 20.943 and 17.6535
- Figure 7 dose-response raw data, HRV_B14 (triplicate values) (HRV-B14; Concentration 0.3704 µM): 18.8048 and 20.943 and 27.193
- Figure 7 dose-response raw data, HRV_B14 (triplicate values) (HRV-B14; Concentration 1.1111 µM): 18.8048 and 20.943 and 27.193
- Figure 7 dose-response raw data, HRV_B14 (triplicate values) (HRV-B14; Concentration 3.3333 µM): 94.6272 and 95.7785 and 85.4167
- Figure 7 dose-response raw data, HRV_B14 (triplicate values) (HRV-B14; Concentration 11.1111 µM): 94.6272 and 95.7785 and 85.4167
- Figure 7 dose-response raw data, HRV_B14 (triplicate values) (HRV-B14; Concentration 33.3333 µM): 98.3946 and 104.147 and 102.94
- Figure 7 dose-response raw data, HRV_B14 (triplicate values) (HRV-B14; Concentration 100 µM): 89.5652 and 94.1472 and 100.034
- EC50 (HRV-B14; HRVB14, HeLa R19, read-out: EC50 Exp1): 1.66 µM
- EC50 (HRV-B14; HRVB14, HeLa R19, read-out: EC50 HRV-B14): 1.45 ± 0.21 µM
- Figure 7 dose-response raw data, HRV-A2 (triplicate values) (HRV-A2; Concentration 0.0412 µM): 16.3585 and 16.9681 and 15.3831
- Figure 7 dose-response raw data, HRV-A2 (triplicate values) (HRV-A2; Concentration 0.3704 µM): 15.1392 and 18.0654 and 15.3831
- Figure 7 dose-response raw data, HRV-A2 (triplicate values) (HRV-A2; Concentration 1.1111 µM): 18.0654 and 16.8462 and 24.4056
- Figure 7 dose-response raw data, HRV-A2 (triplicate values) (HRV-A2; Concentration 3.3333 µM): 11.1156 and 18.0654 and 21.7232
- Figure 7 dose-response raw data, HRV-A2 (triplicate values) (HRV-A2; Concentration 11.1111 µM): 48.3946 and 57.9264 and 41.9398
- Figure 7 dose-response raw data, HRV-A2 (triplicate values) (HRV-A2; Concentration 33.3333 µM): 99.5652 and 104.147 and 100.034
- Figure 7 dose-response raw data, HRV-A2 (triplicate values) (HRV-A2; Concentration 100 µM): 89.5652 and 104.147 and 110.034
- EC50 (HRV-A2; Human rhinovirus sp., HRVA2, HeLa R19, read-out: EC50 HRV-A2): 8.51 ± 0.22 µM
- virus titer, TCID50/ml (Figure 2A) (EV-A71 (strain BrCr); compound concentration 1 µM): 316228 TCID50/ml
- virus titer, TCID50/ml (Figure 2A) (EV-A71 (strain BrCr); compound concentration 3 µM): 316.228 TCID50/ml
- virus titer, TCID50/ml (Figure 2A) (EV-A71 (strain BrCr); compound concentration 10 µM): 316.228 TCID50/ml
- virus titer, TCID50/ml (Figure 2A) (EV-A71 (strain BrCr); compound concentration 30 µM): 316.228 TCID50/ml
- virus titer, TCID50/ml (Figure 2A) (EV-A71 (strain BrCr); compound concentration 100 µM): 316.228 TCID50/ml
- virus titer, TCID50/ml (Figure 2A) (EV-A71 (strain BrCr); compound concentration 150 µM): 316.228 TCID50/ml
- CC50 (in vitro [1]; CC50): > 100 µM
- CC50 (in vitro [1]; CC50 Hap1 Average): > 100 µM
- CC50 (in vitro [1]; Exp 1 CC50 Hap1): > 100 µM
- CC50 (in vitro [1]; Exp 2 CC50 Hap1): > 100 µM
- NET, Mean (Figure 8B) (human NET; 1µM): 121.035
- NET, Mean as % (Figure 8B) (human NET; 1µM): 121%
- NET, Mean (Figure 8B) (human NET; 100µM): 112.597
- NET, Mean as % (Figure 8B) (human NET; 100µM): 113%
- inhibition of NET function (in words) (human NET; HEK293 cells expressing human NET, 1 μM or 100 μM): neither 12a, 19b, 19d, nor the combined compound 12b inhibited
- CC50 (in vitro [2]; CC50 Average): > 30 µM
- CC50 (in vitro [2]; CC50 HelaR19 Average): > 100 µM
- CC50 (in vitro [2]; Exp 1 CC50): > 30 µM
- CC50 (in vitro [2]; Exp 1 CC50 HelaR19): > 100 µM
- CC50 (in vitro [2]; Exp2 CC50): > 30 µM
- CC50 (in vitro [2]; Exp 2 CC50 HelaR19): > 100 µM
- Figure 7 dose-response raw data, PV-1 (triplicate values) (PV-1; Concentration 0.0046 µM): 10.497 and 11.7005 and 9.1598
- Figure 7 dose-response raw data, PV-1 (triplicate values) (PV-1; Concentration 0.0137 µM): 10.497 and 11.7005 and 9.1598
- Figure 7 dose-response raw data, PV-1 (triplicate values) (PV-1; Concentration 0.0412 µM): 10.7644 and 8.357 and 9.1598
- Figure 7 dose-response raw data, PV-1 (triplicate values) (PV-1; Concentration 0.1235 µM): 13.4388 and 8.357 and 9.294
- Figure 7 dose-response raw data, PV-1 (triplicate values) (PV-1; Concentration 0.3704 µM): 10.497 and 11.7005 and 9.1598
- Figure 7 dose-response raw data, PV-1 (triplicate values) (PV-1; Concentration 1.1111 µM): 10.7644 and 8.357 and 9.1598
- Figure 7 dose-response raw data, PV-1 (triplicate values) (PV-1; Concentration 3.3333 µM): 13.4388 and 8.357 and 9.294
- Figure 7 dose-response raw data, PV-1 (triplicate values) (PV-1; Concentration 100 µM): 99.781 and 98.9928 and 101.358
- EC50 (PV-1; HeLa R19, read-out: EC50 Exp1): 3.89 µM
- EC50 (PV-1; HeLa R19, read-out: EC50 Exp2): 3.53 µM
